{"source": "paper PMC5510229", "about": "“BCAT1 controls metabolic reprogramming in activated human macrophages and is associated with inflammatory diseases” (Nature Communications, 2017)", "key": {"[1]": {"assay": "Dose-escalating toxicity study", "assay_type": "in vivo", "conditions": "oral or intraperitoneal administration, doses up to 2 g kg^−1"}, "[2]": {"system": "nephrotoxic nephritis (NTN) model", "assay": "Nephrotoxic nephritis (NTN, crescentic glomerulonephritis) in the WKY rat", "assay_type": "in vivo, Wistar-Kyoto (WKY) rat", "text": "(§1) Figure 5 Orally administrated ERG240 reduced the severity of crescentic glomerulonephritis in rats and CIA in mice. (a) Glomerular crescents, serum creatinine, and proteinuria levels measured in vehicle and ERG240 treated rats at day 10 following induction of nephrotoxic nephritis. At least n=4 rats were used in each group. (b) Col1a1 immunofluorescence (IF) quantification (left panel), representative IF and Sirius red staining images (middle panel) and Col1a1 qRT-PCR (normalized to Hprt) 28 days following NTS injection. Original magnification, × 20, at least n=4 animals were used in each group. (c) Clinical progression of CIA measured by the Mean Arthritis Index in vehicle and ERG240-treated animals in both studies (prophylactic and therapeutic, upper panel; at least n=6 animals per group). Histological analysis of joints from representative whole paws scored for inflammation, pannus formation, cartilage damage and bone resorption (lower panel). Error bars are s.e.m. Either Mann–Whitney or Student’s t-test were used for significance. *** P<0.001, ** P<0.01, * P<0.05. Scale bars, 50 μm.\nNephrotoxic nephritis (NTN) was induced in twelve week old male Wistar-Kyoto (WKY) rats by intravenous injection of 0.1 ml of nephrotoxic serum (NTS), as previously described. Five WKY rats received ERG240 (250 mg kg^−1) orally in 0.1% carboxymethylcellulose once a day for a duration of 10 days whereas the vehicle treated WKY rats had carboxymethylcellulose only for the same period. Nine days following NTS injection, urine was collected by placing rats in metabolic cages for 24 h with free access to food and water. Proteinuria was determined by the sulphosalicylic acid test and serum creatinine by the Creatinine Assay Kit (Abcam). After 10 or 28 days of NTN induction, rats were culled and the kidney was formalin fixed and paraffin embedded for immunohistochemistry. To quantify the number of macrophages infiltrating the glomeruli, formalin-fixed paraffin-embedded kidney sections were stained with mouse monoclonal antibody to ED-1 (Serotec, Oxford, UK), followed by an HRP-labelled anti-mouse polymer development system (Dako Ltd, UK). For the evaluation of total collagen, renal tissues were stained with Sirius red. For Col1a1 immunofluorescence, sections were blocked with BSA, incubated with the Col1a1 primary antibody raised in goat (Southern Biotech, 1/40 dilution), washed and re-incubated with secondary antibody (donkey anti-goat-FITC, 1/100 dilution, Abcam). For ED-1 staining, the cellular infiltrates in 20 consecutive glomeruli were quantified using an automated image analysis software (ImagePro Plus, Media Cybernetics, Bethesda, MD) and expressed as a percentage of total glomerular cross sectional area."}, "[3]": {"system": "collagen-induced arthritis (CIA)", "assay": "Collagen-induced arthritis (CIA) in mice", "assay_type": "in vivo, DBA/1 mice", "text": "as §1\nDBA/1 mice (6–8 weeks old from Harlan Sprague Dawley Inc.) were injected s.c. with 100 μg of bovine type II collagen emulsified in complete Freund’s adjuvant (Sigma). At day 21 following primary immunization, the mice were given a booster injection of 100 μg of bovine type II collagen emulsified in incomplete Freund’s adjuvant. The prophylactic arm of the study involved water-treated (vehicle control, n=6) and ERG240-treated (720 mg kg^−1, o.p., qdx5, 3 weeks, n=10) animals, while the therapeutic arm of the study involved water-treated (vehicle control, n=10) and ERG240-treated (1,000 mg kg^−1, o.p., qdx5, 4 weeks, n=10) animals. Parafin-embedded paws were sectioned at ∼5 μm. One slide from each paw was stained with hematoxylin and eosin (H&E) and served as a reference, while four additional slides were stained using antibodies against F4/80 (AbD Serotec). The expression of the above markers in the joints of the preserved CIA tissues was scored according to the following scale: 0=no staining; 1=minimal; 2=mild; 3=moderate; 4=marked; and 5=diffuse and severe staining (see Supplementary Methods for detailed histological evaluation of CIA tissues). Serum levels of TNF and RANKL were analysed using relevant ELISA kits from Biolegend (TNF-α) and Abcam (RANKL) according to the manufacturers’ instructions. Details for determining the presence of antibodies against type II collagen are provided in Supplementary Methods.\nClinical and histological evaluation methods in CIA\nDevelopment of arthritis was assessed ever y other da y and scored on a scale of 0-4 as follows: 0=no oedema or swelling, 1=slight oedema and er ythema restricted to the foot or ankle, 2=moderate to severe oedema and er ythema restricted to the foot or ankle, 3 =oedem a and erythema of the entire paw, and 4=maximum inflamed limb i nvolving multiple joints.\nThe maximal arthritic score or arthritic index (AI) per animal was 16 (cumulative for 4 limbs).Paw thickness was measured before termination of the experiment . […]\nHistological evaluation of CIA t issues.\nDosing of the animals in the proph ylactic groups started on the da y of the booster injection (day 21), while dosing of the animals in the therapeutic groups started after arthritis was established (da y 26). Animals were scored for the presence of arthritis ever y other da y and weighed once a week. At the end of the study, sera were obtained b y cardiac puncture and paws were excised for histological examination (HistoTox Labs Inc). From each therap eutic group, three front and four hind paws were selected for histological an al ys is . Paws were fixed in 4% formalin and decalcified in formic acid. Parafin sections (8 µm) were stained with toluidine blue (T-blue). The sections were evaluated blindly and scored for inflammation, pannus infiltration, cartilage damage, and bone erosion according to scale shown here. […]"}, "[4]": {"conditions": "250 mg kg^−1 orally once a day, 10 days, day 10"}, "[5]": {"conditions": "excised paws after completion of CIA"}}}
{"smiles": "CC(=O)C(C)CCC(=O)O", "note": "(stereo not drawn) [ERG240]", "values": [{"measurement": "adverse effects in dose-escalating toxicity study", "setting": "[1]", "value": "no major adverse effects"}, {"measurement": "glomerular crescent formation", "setting": "[2]; [4]", "value": "significantly reduced"}, {"measurement": "proteinuria", "setting": "[2]; [4]", "value": "significantly reduced"}, {"measurement": "serum creatinine", "setting": "[2]; [4]", "value": "significantly reduced"}, {"measurement": "interstitial fibrosis", "setting": "[2]; NTN model", "value": "reduced interstitial fibrosis"}, {"measurement": "Col1a1 mRNA levels in the renal cortex", "setting": "[2]; day 28", "value": "reduced"}, {"measurement": "Sirius red staining", "setting": "[2]; day 28", "value": "reduced Sirius red staining"}, {"measurement": "collagen type I alpha I quantitative immunofluorescence in nephritic kidneys", "setting": "[2]; day 28", "value": "significant down-regulation"}, {"measurement": "glomerular infiltration of CD68 (ED1)-positive cells", "setting": "[2]; rat, in vivo", "value": "significantly decreased"}, {"measurement": "serum Tnf levels", "setting": "[3]; CIA mice, ELISA", "value": "diminished levels"}, {"measurement": "serum Tnfsf11 (RANKL) levels", "setting": "[3]; CIA mice, ELISA", "value": "diminished levels"}, {"measurement": "decrease of bone erosion (paw histology)", "setting": "[3]; [5]", "value": 86, "unit": "%"}, {"measurement": "decrease of cartilage degradation (paw histology)", "setting": "[3]; [5]", "value": 74, "unit": "%"}, {"measurement": "decrease of inflammation (paw histology)", "setting": "[3]; [5]", "value": 53, "unit": "%"}, {"measurement": "decrease of pannus formation (paw histology)", "setting": "[3]; [5]", "value": 86, "unit": "%"}, {"measurement": "F4/80+ macrophages in the joints", "setting": "[3]; immunohistochemistry of excised paws", "value": "significant reduction"}, {"measurement": "joint oedema", "setting": "[3]; only in the fore paws, therapeutic study", "value": "significant decrease"}, {"measurement": "severity of CIA (Mean Arthritis Index)", "setting": "[3]; oral, prophylactic 720 mg kg^−1, therapeutic 1000 mg kg^−1", "value": "alleviates the severity of CIA"}]}
